In ChEMBL document CHEMBL1201862, “PubChem BioAssay data set” (2004):
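Values below derive from 48-hour exposures of cells grown in 96-well plates, with endpoints linearly interpolated between the two concentrations bracketing the appropriate inhibition level. GI50 marks 50% less growth.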 Active and inactive are the calls of the source. Cut-off read from the data, not from the text of the source: active = GI50 up to about 1.1 µM and inactive = higher.

Key:
Assay in all cases: NCI anticancer screen, dose series, 48 h
A549 = tested on: A549
CCRF-CEM = tested on: CCRF-CEM
HOP-92 = tested on: HOP-92
OVCAR-4 = tested on: OVCAR-4
MOLT-4 = tested on: MOLT-4
HL-60 = tested on: HL-60
A498 = tested on: A498
M14 = tested on: M14
PC-3 = tested on: PC-3
DU-145 = tested on: DU-145
MDA-N = tested on: MDA-N
SK-MEL-2 = tested on: SK-MEL-2
ACHN = tested on: ACHN
EKVX = tested on: EKVX
KM12 = tested on: KM12
SF-295 = tested on: SF-295
NCI-H460 = tested on: NCI-H460
Hs-578T = tested on: Hs-578T
SF-268 = tested on: SF-268
BT-549 = tested on: BT-549

Measured: GI50

COc1cc(C(c2cc3c(cc2O)OCO3)N2CCCC2)cc(OC)c1OC (configuration not stated)
inactive: A549 20.4 µM | CCRF-CEM 1.79 µM | HOP-92 7.96 µM | OVCAR-4 17 µM | MOLT-4 3.96 µM | HL-60 2.07 µM | A498 21.4 µM | M14 24.5 µM | PC-3 17.3 µM | DU-145 19.3 µM | MDA-N 13.4 µM | SK-MEL-2 19.6 µM | ACHN 15.4 µM | EKVX 14.7 µM | KM12 18.2 µM | SF-295 18.6 µM

N#CCc1nc(O)c2ccccc2n1
inactive: A549 > 100 µM | HOP-92 > 100 µM | OVCAR-4 > 100 µM | MOLT-4 39.7 µM | HL-60 28.3 µM | M14 > 100 µM | PC-3 > 100 µM | DU-145 > 100 µM | MDA-N > 100 µM | SK-MEL-2 > 100 µM | ACHN > 100 µM | NCI-H460 > 100 µM | EKVX > 100 µM | KM12 > 100 µM | SF-295 > 100 µM

c1ccc(CSC2(SCc3ccccc3)CCCCC2)cc1
inactive: A549 > 10 µM | CCRF-CEM > 10 µM | HOP-92 > 10 µM | OVCAR-4 > 10 µM | MOLT-4 > 10 µM | HL-60 > 10 µM | A498 > 10 µM | M14 > 10 µM | PC-3 > 10 µM | DU-145 > 10 µM | MDA-N > 10 µM | SK-MEL-2 > 10 µM | Hs-578T > 10 µM | ACHN > 10 µM | NCI-H460 > 10 µM | EKVX > 10 µM | KM12 > 10 µM | SF-268 > 10 µM | SF-295 > 10 µM

O[C@@H]1C[C@@H]2N[C@@](O)(C[C@@H]2O)[C@H]1O
inactive: A549 > 100 µM | CCRF-CEM > 100 µM | HOP-92 > 100 µM | OVCAR-4 > 100 µM | MOLT-4 > 100 µM | HL-60 > 100 µM | A498 > 100 µM | M14 > 100 µM | PC-3 > 100 µM | DU-145 > 100 µM | MDA-N > 100 µM | Hs-578T > 100 µM | ACHN > 100 µM | NCI-H460 > 100 µM | EKVX > 100 µM | KM12 > 100 µM | SF-268 > 100 µM | SF-295 > 100 µM

CCC1(c2ccc(OC)c(OC)c2)CCN(S(=O)(=O)c2ccc(C)cc2)C1 (configuration not stated)
inactive: A549 62.8 µM | CCRF-CEM > 100 µM | OVCAR-4 39.4 µM | MOLT-4 19.2 µM | BT-549 > 100 µM | M14 > 100 µM | PC-3 > 100 µM | DU-145 > 100 µM | MDA-N > 100 µM | SK-MEL-2 > 100 µM | ACHN > 100 µM | NCI-H460 64 µM | EKVX > 100 µM | KM12 33.3 µM | SF-268 > 100 µM | SF-295 > 100 µM

COP(=O)(OC)OCN(C)CC/C=C(\C)CC/C=C(\C)CCC=C(C)C
inactive: A549 16.9 µM | CCRF-CEM 10.4 µM | HOP-92 17.6 µM | OVCAR-4 31.3 µM | MOLT-4 13.6 µM | BT-549 16.4 µM | A498 > 100 µM | M14 14.5 µM | PC-3 7.57 µM | MDA-N 14.9 µM | SK-MEL-2 14.9 µM | ACHN 22.8 µM | NCI-H460 11.7 µM | EKVX 29.2 µM | KM12 15.2 µM | SF-268 16.4 µM | SF-295 16.6 µM

COC(=O)C1=C(C(=O)OC)SC(=CC#CC=C2SC(C(=O)OC)=C(C(=O)OC)S2)S1
inactive: A549 25.5 µM | CCRF-CEM > 100 µM | HOP-92 16.2 µM | OVCAR-4 9.33 µM | MOLT-4 > 100 µM | HL-60 > 100 µM | A498 19.4 µM | M14 13.6 µM | SK-MEL-2 12.9 µM | ACHN 11.8 µM | NCI-H460 21 µM | EKVX 52.2 µM | KM12 > 54.6 µM | SF-268 > 32.4 µM | SF-295 2.82 µM

CCCN(CCC)C(=O)c1c(N2CCN(C)CC2)c2cccnc2n2c(C)cnc12
inactive: A549 > 100 µM | CCRF-CEM > 100 µM | HOP-92 > 100 µM | OVCAR-4 > 100 µM | MOLT-4 85.9 µM | HL-60 > 100 µM | A498 78.5 µM | M14 > 100 µM | PC-3 > 100 µM | DU-145 > 100 µM | MDA-N > 100 µM | SK-MEL-2 > 100 µM | Hs-578T > 100 µM | ACHN > 100 µM | NCI-H460 > 100 µM | EKVX > 100 µM | KM12 > 100 µM | SF-268 > 100 µM | SF-295 > 100 µM

O=C1CCCCCCCCCCC1CCCCCBr (configuration not stated)
inactive: A549 29.4 µM | CCRF-CEM 17 µM | HOP-92 18.4 µM | OVCAR-4 16.9 µM | MOLT-4 17.1 µM | A498 14.4 µM | M14 33 µM | PC-3 31.2 µM | DU-145 28.7 µM | MDA-N 31.8 µM | SK-MEL-2 16.9 µM | Hs-578T 46.8 µM | ACHN 27.4 µM | NCI-H460 36.6 µM | EKVX 41.7 µM | KM12 23.1 µM | SF-268 30.8 µM | SF-295 34.4 µM

CC1(C)C(CCO)CC1n1cc(I)c(=O)[nH]c1=O (configuration not stated)
inactive: A549 > 100 µM | CCRF-CEM > 100 µM | HOP-92 > 100 µM | OVCAR-4 > 100 µM | MOLT-4 > 100 µM | A498 > 100 µM | M14 > 100 µM | PC-3 > 100 µM | DU-145 > 100 µM | MDA-N > 100 µM | SK-MEL-2 > 100 µM | Hs-578T 90.6 µM | ACHN > 100 µM | EKVX > 100 µM | KM12 > 100 µM | SF-268 > 100 µM | SF-295 > 100 µM

O=S(=O)([C-]([I+]c1ccccc1)S(=O)(=O)C(F)(F)C(F)(F)C(F)(F)C(F)(F)F)C(F)(F)C(F)(F)C(F)(F)C(F)(F)F
inactive: A549 18.7 µM | CCRF-CEM 4.06 µM | HOP-92 8.77 µM | OVCAR-4 2.95 µM | MOLT-4 3.51 µM | HL-60 4.67 µM | BT-549 15.2 µM | A498 14.8 µM | M14 13.6 µM | PC-3 17.2 µM | Hs-578T 20.1 µM | ACHN 6.49 µM | NCI-H460 17.7 µM | EKVX 13.5 µM | KM12 21.5 µM | SF-268 18.5 µM | SF-295 16.6 µM

CCCCCCC(=O)C/C(CCC(=O)N(Cc1ccccc1)Cc1ccccc1)=N\Nc1ccc([N+](=O)[O-])cc1[N+](=O)[O-]
inactive: A549 46.1 µM | CCRF-CEM 17.3 µM | HOP-92 51.1 µM | OVCAR-4 40.1 µM | MOLT-4 > 10 µM | HL-60 32.2 µM | A498 62.8 µM | M14 57.8 µM | SK-MEL-2 83.4 µM | ACHN 27.3 µM | NCI-H460 71.1 µM | EKVX 29.1 µM | KM12 46 µM | SF-268 39.1 µM | SF-295 55.1 µM

CCO[C@]12CCC[C@H]1[C@@H]1C(=O)c3ccccc3C(=O)C1=C(C)O2
inactive: A549 > 100 µM | CCRF-CEM 33.5 µM | HOP-92 44.9 µM | OVCAR-4 26.3 µM | MOLT-4 33.6 µM | HL-60 41.7 µM | A498 76 µM | M14 34.3 µM | PC-3 > 100 µM | DU-145 58.1 µM | MDA-N 19.5 µM | SK-MEL-2 > 100 µM | Hs-578T > 100 µM | ACHN 36.8 µM | NCI-H460 > 100 µM | EKVX > 100 µM | KM12 > 100 µM | SF-268 30.8 µM | SF-295 81.1 µM

CCC(=O)C1=C(OC(C)=O)C2Cc3c(n(C)c4ccccc34)C(C1)N2C (configuration not stated)
inactive: A549 68.5 µM | CCRF-CEM 27 µM | HOP-92 67 µM | OVCAR-4 28.4 µM | MOLT-4 34.7 µM | HL-60 21.6 µM | A498 42.9 µM | M14 37.8 µM | SK-MEL-2 63.7 µM | ACHN 27.3 µM | NCI-H460 53 µM | EKVX 64.3 µM | KM12 45.9 µM | SF-268 19 µM | SF-295 > 100 µM

O=[N+]([O-])c1ccc2c(c1)S(=O)(=O)N1Cc3ccccc3CCN21
inactive: A549 > 100 µM | CCRF-CEM > 100 µM | HOP-92 62.2 µM | OVCAR-4 > 100 µM | MOLT-4 > 100 µM | HL-60 > 100 µM | A498 > 100 µM | M14 > 100 µM | PC-3 > 100 µM | DU-145 > 100 µM | SK-MEL-2 > 100 µM | Hs-578T 26.7 µM | ACHN > 100 µM | NCI-H460 > 100 µM | EKVX 13.3 µM | KM12 > 100 µM | SF-268 40.7 µM | SF-295 27.1 µM

C=C1c2cc3c(cc2CC12Cc1cc4c(cc1C2=O)CCC4)CCC3 (configuration not stated)
inactive: A549 > 100 µM | CCRF-CEM > 100 µM | HOP-92 > 100 µM | OVCAR-4 > 100 µM | MOLT-4 > 100 µM | HL-60 > 100 µM | A498 > 100 µM | M14 > 100 µM | PC-3 > 100 µM | DU-145 > 100 µM | MDA-N > 100 µM | SK-MEL-2 > 100 µM | Hs-578T > 100 µM | ACHN > 100 µM | NCI-H460 > 100 µM | EKVX > 100 µM | SF-268 > 100 µM | SF-295 > 100 µM
